Assays:
[1] = Antiproliferative activity against VEGF-stimulated HUVEC cells assessed as reduction in cell viability at 2 nM preincubated for 1 hr followed by addition of VEGF measured after 72 hrs by MTT assay; format: functional; settings: Homo sapiens
[2] = Antiproliferative activity against VEGF-stimulated HUVEC cells assessed as reduction in cell viability at 0.5 nM preincubated for 1 hr followed by addition of VEGF measured after 72 hrs by MTT assay; format: functional; settings: Homo sapiens

Structure (SMILES) | inhibition at 0.002 µM [1] [%] | inhibition at 0.0005 µM [2] [%]
CCN(CC)CCCC(C)NC(=O)c1ccccc1Nc1ccc2c(/C=C/c3ccccn3)n[nH]c2c1 (stereo not drawn) | 15 | 3
CNC(=O)c1ccccc1Nc1ccc2c(/C=C/c3ccccn3)n[nH]c2c1 | 21 | 8
O=C(NCCc1cccnc1)c1ccccc1Nc1ccc2c(/C=C/c3ccccn3)n[nH]c2c1 | 61 | 23
O=C(NC1CCc2ccccc21)c1ccccc1Nc1ccc2c(/C=C/c3ccccn3)n[nH]c2c1 (stereo not drawn) | 86 | 19
Cc1cc(NNC(=O)c2ccccc2Nc2ccc3c(/C=C/c4ccccn4)n[nH]c3c2)nc(C)n1 | 35 | 32
CCC(O)CNC(=O)c1ccccc1Nc1ccc2c(/C=C/c3ccccn3)n[nH]c2c1 (stereo not drawn) | 23 | 13
O=C(NCS(=O)(=O)O)c1ccccc1Nc1ccc2c(/C=C/c3ccccn3)n[nH]c2c1 | -3 | 2
CN(C)CC(=O)NNC(=O)c1ccccc1Nc1ccc2c(/C=C/c3ccccn3)n[nH]c2c1 | 16 | 41
CCC(C)NC(=O)c1ccccc1Nc1ccc2c(/C=C/c3ccccn3)n[nH]c2c1 (stereo not drawn) | 58 | 29
CCC(C)CNC(=O)c1ccccc1Nc1ccc2c(/C=C/c3ccccn3)n[nH]c2c1 (stereo not drawn) | 84 | 24
CC(C)C(CO)NC(=O)c1ccccc1Nc1ccc2c(/C=C/c3ccccn3)n[nH]c2c1 (stereo not drawn) | -5 | 21
CCCCCCCNC(=O)c1ccccc1Nc1ccc2c(/C=C/c3ccccn3)n[nH]c2c1 | 34 | 9
O=C(Nc1nnn[nH]1)c1ccccc1Nc1ccc2c(/C=C/c3ccccn3)n[nH]c2c1 | 18 to 64 | 21 to 39
O=C(NCCCN1CCOCC1)c1ccccc1Nc1ccc2c(/C=C/c3ccccn3)n[nH]c2c1 | 14 | 5
CCCCCCNC(=O)c1ccccc1Nc1ccc2c(/C=C/c3ccccn3)n[nH]c2c1 | 90 | 21
N#CC1CCC(CNC(=O)c2ccccc2Nc2ccc3c(/C=C/c4ccccn4)n[nH]c3c2)CC1 (stereo not drawn) | 66 | 36
N#CCONC(=O)c1ccccc1Nc1ccc2c(/C=C/c3ccccn3)n[nH]c2c1 | 2 | 16

Structure (SMILES) | inhibition at 0.002 µM [1] [%] | inhibition at 0.0005 µM [2] [%]
O=C(Cc1ccccc1)NNC(=O)c1ccccc1Nc1ccc2c(/C=C/c3ccccn3)n[nH]c2c1 | 66 | 31
O=C(NCCN1CCCCC1)c1ccccc1Nc1ccc2c(/C=C/c3ccccn3)n[nH]c2c1 | 19 | 5
CC1CCCCN1CCCNC(=O)c1ccccc1Nc1ccc2c(/C=C/c3ccccn3)n[nH]c2c1 (stereo not drawn) | 15 | 25
CN1CCN(CCCNC(=O)c2ccccc2Nc2ccc3c(/C=C/c4ccccn4)n[nH]c3c2)CC1 | 4 | 0
N=C(N)CNC(=O)c1ccccc1Nc1ccc2c(/C=C/c3ccccn3)n[nH]c2c1 | -1 | 7
CCN(CC)CCCCNC(=O)c1ccccc1Nc1ccc2c(/C=C/c3ccccn3)n[nH]c2c1 | 36 | 22
CC(C)C(C)NC(=O)c1ccccc1Nc1ccc2c(/C=C/c3ccccn3)n[nH]c2c1 (stereo not drawn) | 55 | 19
O=CNNC(=O)c1ccccc1Nc1ccc2c(/C=C/c3ccccn3)n[nH]c2c1 | 29 | 28
CC(C)(C)c1cc(NC(=O)c2ccccc2Nc2ccc3c(/C=C/c4ccccn4)n[nH]c3c2)no1 | 4 | 15
CSc1nc(NC(=O)c2ccccc2Nc2ccc3c(/C=C/c4ccccn4)n[nH]c3c2)nn1C | 2 | 16
CN(C)NC(=O)c1ccccc1Nc1ccc2c(/C=C/c3ccccn3)n[nH]c2c1 | 20 | 31
O=C(NNC(=O)c1ccccc1Nc1ccc2c(/C=C/c3ccccn3)n[nH]c2c1)c1ccccc1O | 61 | 30
O=C(NCCOCCO)c1ccccc1Nc1ccc2c(/C=C/c3ccccn3)n[nH]c2c1 | 24 | 10
O=C(NC1CCSC1=O)c1ccccc1Nc1ccc2c(/C=C/c3ccccn3)n[nH]c2c1 (stereo not drawn) | 40 | 25
O=C(N[C@H]1CC[C@H](O)CC1)c1ccccc1Nc1ccc2c(/C=C/c3ccccn3)n[nH]c2c1 | 6 | 23
CCN(CC)C/C=C/CNC(=O)c1ccccc1Nc1ccc2c(/C=C/c3ccccn3)n[nH]c2c1 | 29 | 10
O=C(CNC(=O)c1ccccc1Nc1ccc2c(/C=C/c3ccccn3)n[nH]c2c1)NO | 9 | 5

Source: ChEMBL document CHEMBL3880421, “Indazole compounds and pharmaceutical compositions for inhibiting protein kinases, and methods for their use” (2003)
